Four compounds from patent US7528140B2, “Substituted pyrrolo[3,2-d]pyrimidines as glycogen synthase kinase (GSK) inhibitors” (Teijin Limited, priority 2002, dated 2009) can be followed below.

For this experiment, the target named is recombinant human GSK-3β (Homo sapiens, UniProt P49841). Briefly: Measurement of GSK-3 enzyme activity inhibition (32P phosphorylation of phospho-glycogen synthase peptide-2). The class given is biochemical. To be noted: 20 μM ATP, 20 minutes at room temperature, read-out: GSK-3 enzyme inhibiting activity (IC50). The procedure:
Measurement of GSK-3 Enzyme Activity Inhibition
After adding 25 μL of phospho-glycogen synthase peptide-2 substrate solution [6 μM phospho -glycogen synthase peptide-2, 20 μM ATP, 16 mM MOPS buffer (pH 7.0), 0.2 mM EDTA, 20 mM magnesium acetate, 0.1 μCi [γ-^32P]ATP (specific activity: approximately 110 TBq/mmol)]to 5 μL of the test compound using 5% dimethylsulfoxide as the solvent, reaction was initiated by further addition of 20 μL of a GSK-3β enzyme solution [10 mU recombinant human GSK-3β, 20 mM MOPS buffer (pH 7.0), 1 mM EDTA, 0.1% polyoxyethylene lauryl ether (23 Lauryl Ether; Brij 35), 5% glycerol, 0.1% β-mercaptoethanol]. After conducting the reaction for 20 minutes at room temperature, an equivalent volume of a 200 mM phosphoric acid solution was added to quench the reaction, and 90 μL of the reaction product was adsorbed onto a MultiScreen PH plate (Millipore) and rinsed with a 100 mM phosphoric acid solution. After drying the plate, 30 μL of Micro Scint-O (Packard BioScience) was added, and the cpm was measured with a scintillation counter to determine the inhibiting activity. Phospho GS Peptide2 is […]P)-Glu-Asp-Glu-Glu-Glu (SEQ ID NO:1).

recombinant human GSK-3β, sequence (P49841 whole entry): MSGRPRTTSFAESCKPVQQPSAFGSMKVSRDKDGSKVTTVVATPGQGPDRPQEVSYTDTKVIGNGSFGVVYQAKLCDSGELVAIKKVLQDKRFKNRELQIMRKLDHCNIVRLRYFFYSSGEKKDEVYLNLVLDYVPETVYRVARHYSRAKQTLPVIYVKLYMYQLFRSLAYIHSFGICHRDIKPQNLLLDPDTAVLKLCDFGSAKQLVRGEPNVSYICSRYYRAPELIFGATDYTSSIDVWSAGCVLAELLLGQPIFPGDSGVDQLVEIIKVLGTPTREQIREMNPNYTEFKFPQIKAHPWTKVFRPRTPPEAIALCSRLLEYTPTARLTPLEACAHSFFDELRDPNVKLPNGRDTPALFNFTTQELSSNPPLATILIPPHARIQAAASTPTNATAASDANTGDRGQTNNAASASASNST

Take `N#Cc1c(C2CC2)n(CCC(=O)O)c2c(=S)[nH]cnc12` [4-0092, 3-(7-cyano-6-cyclopropyl-4-thioxo-3-hydropyrrolo[3,2-d]pyrimidin-5-yl)propanoic acid]: the IC50 (usually the concentration needed to halve the response being measured) was 10 to 30 nM.

Take `N#Cc1c(NC2CC2)n(CCNC(=O)c2ccccc2)c2c(=S)[nH]cnc12` [6-0413, N-{2-[7-cyano-6-(cyclopropylamino)-4-thioxo(3-hydropyrrolo[3,2-d]pyrimidin-5-yl)]ethyl}benzamide]: the IC50 fell in the range of 10 to 30 nM.

With `CN(C)c1c(C#N)c2nc[nH]c(=S)c2n1CCNC(=O)c1ccc(F)cc1` [6-1029, N-{2-[6-(dimethylamino)-7-cyano-4-thioxo(3-hydropyrrolo[3,2-d]pyrimidin-5-yl)]ethyl}(4-fluorophenyl)carboxamide], the IC50 was in the range of 30 to 100 nM.

For `N#Cc1c(N2CCCC2)n(CCNC(=O)c2ccc(F)cc2)c2c(=S)[nH]cnc12` [6-1031, N-[2-(7-cyano-6-pyrrolidinyl-4-thioxo(3-hydropyrrolo[3,2-d]pyrimidin-5-yl))ethyl](4-fluorophenyl)carboxamide], the IC50 was 30 to 100 nM.
